Here are results for five compounds from patent publication US8202886B2, “Small molecule E2F inhibitor” (H. Lee Moffitt Cancer Center and Research Institute, Inc., priority 2008, dated 2012).

The first experiment relates to 8226-s, 8226-dox40 and 8226-MR20. Put plainly: PARP cleavage western in drug sensitive and resistant 8226 lines. Format: cell-based, human. To be noted: 24 hours; 10 μM cisplatin or 10, 20 or 40 μM HLM006474. As for the experimental part:
Cells were collected 24 hours post drug exposure and extracts subjected to western blotting using antibodies to the indicated proteins. Cleavage of PARP indicates apoptosis.
As for `N.N.[Cl][Pt][Cl]` [cisplatin, reference compound], the “PARP cleavage (apoptosis) in sensitive versus resistant lines” value is listed as “Minimal PARP cleavage”.

The next experiment concerns E2F4-deficient MEFs.
Assay: not given
The following applies: earlier work of the inventors (Ma et al., 2004); cited from earlier work.
In the case of `CC(C)(C)c1cnc(CSc2cnc(NC(=O)C3CCNCC3)s2)o1` [SNS-032], the “sensitivity of E2F4-deficient MEFs to other drugs” value (“sensitivity of E2F4-deficient MEFs” for short) is reported as “more sensitive”. For the compound `COc1cc([C@@H]2c3cc4c(cc3[C@@H](O[C@@H]3O[C@@H]5CO[C@@H](C)O[C@H]5[C@H](O)[C@H]3O)[C@H]3COC(=O)[C@H]23)OCO4)cc(OC)c1O` [VP16, etoposide], the “sensitivity of E2F4-deficient MEFs” value is reported as “more sensitive”.

Regarding `N.N.[Cl][Pt][Cl]` [cisplatin, reference compound], the “sensitivity of E2F4-deficient MEFs” value is “more sensitive”. In the case of `CN1CC[C@H](c2c(O)cc(O)c3c(=O)cc(-c4ccccc4Cl)oc23)[C@H](O)C1` [flavopiridol], the “sensitivity of E2F4-deficient MEFs” value is given as “more sensitive”. For `CC[C@H](CO)Nc1nc(NCc2ccccc2)c2ncn(C(C)C)c2n1` [roscovitine], the “sensitivity of E2F4-deficient MEFs” value is “more sensitive”.
